Results: patent US5441941A, “1,2-dihydroellipticines with activity against CNS specific cancer” (The United States of America as represented by the …, priority 1993, dated 1995)

Columns and labels:
SNB-75 = experiment: NCI in vitro screen, SRB percent growth, CNS Cancer
MOLT-4 = experiment: cells; settings: Homo sapiens
OVCAR-3 = experiment: NCI in vitro screen, SRB percent growth, Ovarian Cancer
KM20L2 = experiment: cells; settings: Homo sapiens
HCC-2998 = experiment: cells; settings: Homo sapiens
CCRF-CEM = experiment: NCI in vitro screen, SRB percent growth, Leukemia
UO-31 = experiment: NCI in vitro screen, SRB percent growth, Renal Cancer
DMS 114 = experiment: cells; settings: Homo sapiens
UACC-257 = experiment: NCI in vitro screen, SRB percent growth, Melanoma
NCI-H23 = experiment: NCI in vitro screen, SRB percent growth, Non-Small Cell Lung Cancer
U251 = experiment: NCI in vitro screen, SRB percent growth, CNS Cancer
RPMI-8226 = experiment: cells; settings: Homo sapiens
HOP-62 = experiment: NCI in vitro screen, SRB percent growth, Non-Small Cell Lung Cancer
SF-539 = experiment: NCI in vitro screen, SRB percent growth, CNS Cancer
OVCAR-5 = experiment: NCI in vitro screen, SRB percent growth, Ovarian Cancer
SK-MEL-2 = experiment: NCI in vitro screen, SRB percent growth, Melanoma
SK-MEL-5 = experiment: NCI in vitro screen, SRB percent growth, Melanoma
[1] = Log10 Concentration -4.0, 100 µM
[2] = Log10 Concentration -7.0, 0.1 µM
[3] = MOLT-4, read-out: Percent Growth
[4] = KM-20L2, read-out: Percent Growth
[5] = HCC 2998, read-out: Percent Growth
[6] = RPMI-8226, read-out: Percent Growth

SMILES: Cc1ccc2[nH]c3c(C)c4c(c(C)c3c2c1)CN(C)C=C4 [Formula XI]
- Percent Growth (SNB-75; [1]): -97%
- Percent Growth (SNB-75; Log10 Concentration -5.0): -72%
- Percent Growth (SNB-75; Log10 Concentration -6.0, 1 µM): 20%
- Percent Growth (SNB-75; [2]): 109%
- Percent Growth (SNB-75; Log10 Concentration -8.0): 110%
- TGI (SNB-75; PG=0): 1.66 µM
- GI50 (SNB-75; PG=+50): 0.462 µM
- CC50 (SNB-75; read-out: LC-50, PG=-50): 5.75 µM
- GI50 (MOLT-4; MOLT-4): 2.14 µM
- CC50 (MOLT-4; MOLT-4, read-out: LC-50): > 100 µM
- activity at 0.01 µM (MOLT-4; [3]): 104%
- activity at 0.1 µM (MOLT-4; [3]): 101%
- activity at 1 µM (MOLT-4; [3]): 68%
- activity at 10 µM (MOLT-4; [3]): 14%
- activity at 100 µM (MOLT-4; [3]): -50%
- IC (TGI) (MOLT-4; MOLT-4, read-out: TGI): 16.5 µM
- Percent Growth (OVCAR-3; [1]): -91%
- Percent Growth (OVCAR-3; Log10 Concentration -5.0): 5%
- Percent Growth (OVCAR-3; Log10 Concentration -6.0, 1 µM): 76%
- Percent Growth (OVCAR-3; [2]): 94%
- Percent Growth (OVCAR-3; Log10 Concentration -8.0): 98%
- TGI (OVCAR-3; PG=0): 11.3 µM
- GI50 (OVCAR-3; PG=+50): 2.34 µM
- CC50 (OVCAR-3; read-out: LC-50, PG=-50): 37.6 µM
- GI50 (KM20L2; KM-20L2): 2.22 µM
- CC50 (KM20L2; KM-20L2, read-out: LC-50): 38 µM
- activity at 0.01 µM (KM20L2; [4]): 106%
- activity at 0.1 µM (KM20L2; [4]): 95%
- activity at 1 µM (KM20L2; [4]): 73%
- activity at 10 µM (KM20L2; [4]): 7%
- activity at 100 µM (KM20L2; [4]): -91%
- IC (TGI) (KM20L2; KM-20L2, read-out: TGI): 11.7 µM
- GI50 (HCC-2998; HCC 2998): 1.69 µM
- CC50 (HCC-2998; HCC 2998, read-out: LC-50): 7.89 µM
- activity at 0.01 µM (HCC-2998; [5]): 105%
- activity at 0.1 µM (HCC-2998; [5]): 108%
- activity at 1 µM (HCC-2998; [5]): 84%
- activity at 10 µM (HCC-2998; [5]): -65%
- activity at 100 µM (HCC-2998; [5]): -91%
- IC (TGI) (HCC-2998; HCC 2998, read-out: TGI): 3.65 µM
- Percent Growth (CCRF-CEM; [1]): -35%
- Percent Growth (CCRF-CEM; Log10 Concentration -5.0): 13%
- Percent Growth (CCRF-CEM; Log10 Concentration -6.0, 1 µM): 74%
- Percent Growth (CCRF-CEM; [2]): 94%
- Percent Growth (CCRF-CEM; Log10 Concentration -8.0): 102%
- TGI (CCRF-CEM; PG=0): 18 µM
- GI50 (CCRF-CEM; PG=+50): 2.48 µM
- CC50 (CCRF-CEM; read-out: LC-50, PG=-50): > 100 µM
- Percent Growth (UO-31; [1]): -94%
- Percent Growth (UO-31; Log10 Concentration -5.0): 36%
- Percent Growth (UO-31; Log10 Concentration -6.0, 1 µM): 72%
- Percent Growth (UO-31; [2]): 76%
- Percent Growth (UO-31; Log10 Concentration -8.0): 103%
- TGI (UO-31; PG=0): 18.8 µM
- GI50 (UO-31; PG=+50): 3.99 µM
- CC50 (UO-31; read-out: LC-50, PG=-50): 45.7 µM
- GI50 (DMS 114; DMS-114): 0.414 µM
- IC (TGI) (DMS 114; DMS-114, read-out: TGI): 2.12 µM
- Percent Growth (UACC-257; [1]): -87%
- Percent Growth (UACC-257; Log10 Concentration -5.0): -8%
- Percent Growth (UACC-257; Log10 Concentration -6.0, 1 µM): 86%
- Percent Growth (UACC-257; [2]): 90%
- Percent Growth (UACC-257; Log10 Concentration -8.0): 97%
- TGI (UACC-257; PG=0): 8.23 µM
- GI50 (UACC-257; PG=+50): 2.43 µM
- CC50 (UACC-257; read-out: LC-50, PG=-50): 34.3 µM
- Percent Growth (NCI-H23; [1]): -85%
- Percent Growth (NCI-H23; Log10 Concentration -5.0): -75%
- Percent Growth (NCI-H23; Log10 Concentration -6.0, 1 µM): 42%
- Percent Growth (NCI-H23; [2]): 97%
- Percent Growth (NCI-H23; Log10 Concentration -8.0): 95%
- TGI (NCI-H23; PG=0): 2.29 µM
- GI50 (NCI-H23; PG=+50): 0.668 µM
- CC50 (NCI-H23; read-out: LC-50, PG=-50): 6.15 µM
- Percent Growth (U251; Log10 Concentration -5.0): -72%
- Percent Growth (U251; Log10 Concentration -6.0, 1 µM): 3%
- Percent Growth (U251; [2]): 89%
- Percent Growth (U251; Log10 Concentration -8.0): 99%
- TGI (U251; PG=0): 1.1 µM
- GI50 (U251; PG=+50): 0.286 µM
- CC50 (U251; read-out: LC-50, PG=-50): 5.12 µM
- GI50 (RPMI-8226; RPMI-8226): 6.81 µM
- CC50 (RPMI-8226; RPMI-8226, read-out: LC-50): > 100 µM
- activity at 0.01 µM (RPMI-8226; [6]): 109%
- activity at 0.1 µM (RPMI-8226; [6]): 106%
- activity at 1 µM (RPMI-8226; [6]): 103%
- activity at 10 µM (RPMI-8226; [6]): 39%
- activity at 100 µM (RPMI-8226; [6]): -27%
- IC (TGI) (RPMI-8226; RPMI-8226, read-out: TGI): 39.3 µM
- Percent Growth (HOP-62; [1]): -89%
- Percent Growth (HOP-62; Log10 Concentration -5.0): -39%
- Percent Growth (HOP-62; Log10 Concentration -6.0, 1 µM): 11%
- Percent Growth (HOP-62; [2]): 119%
- Percent Growth (HOP-62; Log10 Concentration -8.0): 121%
- TGI (HOP-62; PG=0): 1.64 µM
- GI50 (HOP-62; PG=+50): 0.433 µM
- CC50 (HOP-62; read-out: LC-50, PG=-50): 16.3 µM
- Percent Growth (SF-539; [1]): -90%
- Percent Growth (SF-539; Log10 Concentration -5.0): -58%
- Percent Growth (SF-539; Log10 Concentration -6.0, 1 µM): 6%
- Percent Growth (SF-539; [2]): 92%
- Percent Growth (SF-539; Log10 Concentration -8.0): 99%
- TGI (SF-539; PG=0): 1.23 µM
- GI50 (SF-539; PG=+50): 0.305 µM
- CC50 (SF-539; read-out: LC-50, PG=-50): 7.56 µM
- Percent Growth (OVCAR-5; [1]): -83%
- Percent Growth (OVCAR-5; Log10 Concentration -5.0): 19%
- Percent Growth (OVCAR-5; Log10 Concentration -6.0, 1 µM): 97%
- Percent Growth (OVCAR-5; [2]): 113%
- Percent Growth (OVCAR-5; Log10 Concentration -8.0): 108%
- TGI (OVCAR-5; PG=0): 15.2 µM
- GI50 (OVCAR-5; PG=+50): 3.99 µM
- CC50 (OVCAR-5; read-out: LC-50, PG=-50): 47.4 µM
- Percent Growth (SK-MEL-2; [1]): -94%
- Percent Growth (SK-MEL-2; Log10 Concentration -5.0): -92%
- Percent Growth (SK-MEL-2; Log10 Concentration -6.0, 1 µM): 94%
- Percent Growth (SK-MEL-2; [2]): 103%
- Percent Growth (SK-MEL-2; Log10 Concentration -8.0): 98%
- TGI (SK-MEL-2; PG=0): 3.2 µM
- GI50 (SK-MEL-2; PG=+50): 1.72 µM
- CC50 (SK-MEL-2; read-out: LC-50, PG=-50): 5.96 µM
- Percent Growth (SK-MEL-5; [1]): -90%
- Percent Growth (SK-MEL-5; Log10 Concentration -5.0): -79%
- Percent Growth (SK-MEL-5; Log10 Concentration -6.0, 1 µM): 77%
- Percent Growth (SK-MEL-5; [2]): 94%
- Percent Growth (SK-MEL-5; Log10 Concentration -8.0): 92%
- TGI (SK-MEL-5; PG=0): 3.11 µM
- GI50 (SK-MEL-5; PG=+50): 1.49 µM
- CC50 (SK-MEL-5; read-out: LC-50, PG=-50): 6.49 µM
